Columns and labels:
[1] = tested on: rat striatal slices; test: Rat striatal slices exposed to 6-OHDA: cell death and ROS production; type: cell-based; settings: compound 10 µM, 6-OHDA 100 µM, 4 h
Protocol: Three- to four-month-old Sprague–Dawley rats were decapitated, the brain was removed, and the two brain hemispheres were separated. Each hemisphere was then cut into 300-µm coronal slices using a McIlwain Tissue Chopper (Cavey Laboratory Engineering, Surrey, UK) and separated in a previously oxygenated (95% O2 and 5% CO2) ice-cold Krebs’s dissection buffer (120 mM of NaCl; 2 mM of KCl; 26 mM of NaHCO3; 1.18 mM of KH2PO4; 10 mM of MgSO4; 0.5 mM of CaCl2; 11 mM of glucose; and 200 mM sucrose at pH 7.4) using a Leica SE6 microscope (Leica, Madrid, Spain). Striatum-containing slices were selected and immediately incubated for stabilization in dissection buffer without sucrose, bubbled with 95% O2 and 5% CO2 for 45 min at 34 °C, allowing slices to recover from slicing injury. […] Finally, cell death and the ROS production were measured.
ROS quantification was performed using the fluorescent probe 2,7′-dichlorodihydrofluorescein diacetate (H2DCFDA, λEx/Em = 495/529 nm; Thermo Fisher, Madrid, Spain). Cell death quantification was performed using the fluorescent probe propidium iodide (PI, λEx/Em = 535/617 nm; Thermo Fisher, Madrid, Spain). […] Fluorescence from striatum slices was then recorded for H2DCFDA (λEx/Em = 495/529 nm), PI (λEx/Em = 535/617 nm), and Hoechst (λEx/Em = 350/461 nm), in an inverted Nikon Eclipse T2000-U microscope (Nikon, Tokyo, Japan). […]

[2] = tested on: HMOX1 and GCLC in MEF cells; test: Western blot of NRF2-dependent proteins in WT and NRF2 KO MEF cells; type: cell-based, mouse; settings: 10 µM, 8 or 16 h
Protocol: Cell samples were lysed in ice-cold AKT lysis buffer (137 mM of NaCl, 20 mM of NaF, 10% glycerol, 20 mM of Tris–HCl, 1% Nonidet P-40, 1 μg/mL of leupeptin, 1 mM of phenylmethylsulfonylfluoride, 1 mM of sodium pyrophosphate, and 1 mM of Na3VO4, pH 7.5). Protein quantification was performed using the Pierce BCA Protein Assay Kit (ThermoFisher, Madrid, Spain) following manufacturer’s instructions. Then, 30 μg of protein were resolved by sodium dodecyl sulfate-polyacrylamide gel electrophoresis (SDS-PAGE) and transferred to Immobilon-P polyvinylidene difluoride (PVDF) membranes (Millipore Corp.). Membranes were activated with methanol and blocked with 4% bovine serum albumin (BSA) in Tris-buffered saline-Tween (TTBS: 10 mM of Tris, 150 mM of NaCl; 0.2% Tween-20, pH 7.4) for 2 h. After that, membranes were incubated overnight at 4 °C with the corresponding primary antibodies: anti–HMOX1 (1:1000, ab68477, Abcam, Cambridge, UK), anti-glutamate-cysteine ligase catalytic subunit (GCLC, 1:1000, ab41463, Abcam), anti-β-actin (1:50,000, A3854, Sigma–Aldrich, Madrid, Spain). […] Band intensities from specific proteins were analyzed with Fiji software.

[3] = molecular target: T1, MAO-B (Homo sapiens, UniProt P27338); test: MAO-B reversibility assay (pre-incubation times); type: biochemical; settings: 0, 15, 30 min pre-incubation at […] IC50
T1 construct: purchased Sigma–Aldrich
T1 sequence (P27338 1-520): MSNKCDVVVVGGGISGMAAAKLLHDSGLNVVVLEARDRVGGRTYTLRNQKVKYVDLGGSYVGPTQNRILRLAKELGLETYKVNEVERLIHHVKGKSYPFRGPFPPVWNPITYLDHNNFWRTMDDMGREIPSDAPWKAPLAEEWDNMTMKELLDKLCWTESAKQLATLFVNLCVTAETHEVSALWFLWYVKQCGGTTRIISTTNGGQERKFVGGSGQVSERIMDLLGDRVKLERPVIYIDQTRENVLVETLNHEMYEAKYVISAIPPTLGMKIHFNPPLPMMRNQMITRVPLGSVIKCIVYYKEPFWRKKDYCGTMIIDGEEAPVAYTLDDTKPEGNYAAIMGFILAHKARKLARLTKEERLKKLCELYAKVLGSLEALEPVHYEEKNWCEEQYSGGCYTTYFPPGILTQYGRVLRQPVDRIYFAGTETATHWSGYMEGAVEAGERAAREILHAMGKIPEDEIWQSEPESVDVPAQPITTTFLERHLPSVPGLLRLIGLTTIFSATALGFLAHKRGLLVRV

## C#CCN(CC#C)CCc1c[nH]c2ccc(OC(=O)C=Cc3ccccc3)cc12 [Compound 14, 3-(2-(Di(prop-2-yn-1-yl)amino)ethyl)-1H-indol-5-yl Cinnamate]
[1]
  ROS production (H2DCFDA), 6-OHDA model: significantly decreased ROS production
  cell death (propidium iodide), 6-OHDA model: significant reduction in cell death
[2]
  HMOX1 and GCLC protein levels in NRF2 KO MEF cells: not able to increase
  HMOX1 and GCLC protein levels in WT MEF cells: increased
[3]
  MAO-B inhibition reversibility: reversible inhibition
